Data on 21 molecules can be found in ChEMBL document CHEMBL4000218, “Explicit treatment of active-site waters enhances quantum mechanical/implicit solvent scoring: Inhibition of CDK2 by new pyrazolo[1,5-a]pyrimidines” (Eur J Med Chem, 2017).

pIC50: −log10 of the molar value.

The target in this assay is Cyclin-dependent kinase 2/cyclin E1 (Homo sapiens, UniProt P24941). The assay can be described thus: Inhibition of CDK2/cyclin E (unknown origin) expressed in baculovirus infected insect Sf9 cells using histone H1 as substrate in presence of [gamma-33P]ATP.
`N#CCCc1cc(-c2ccc(-c3cc(NCc4cccnc4)n4nccc4n3)cc2)ccc1C(N)=O`: the pIC50 was 5.26.
The same measure for `NC(=O)c1ccc(-c2ccc(-c3cc(NCc4cccnc4)n4nccc4n3)cc2)cc1`: 5.40.
As for `NC(=O)c1ccc(-c2ccc(-c3cc(NCc4cccnc4)n4ncc(Br)c4n3)cc2)cc1O`, the figure is 7.28.
The same measure for `CN(C)C(=O)c1ccc(-c2ccc(-c3cc(NCc4cccnc4)n4ncc(Br)c4n3)cc2)cc1`: 7.19; for `Oc1ccc(-c2ccc(-c3cc(NCc4cccnc4)n4ncc(Br)c4n3)cc2)cc1`: 6.85; for `CN(C)C(=O)c1ccc(-c2ccc(-c3cc(NCc4cccnc4)n4nccc4n3)cc2)cc1`: 5.71.
Regarding `CCc1cnn2c(NCc3cccnc3)cc(-c3ccc(-c4ccc(CO)cc4)cc3)nc12`, the negative logarithm of the IC50 (pIC50) was 6.89.
As to `OCc1ccc(-c2ccc(-c3cc(NCc4cccnc4)n4ncc(Br)c4n3)cc2)cc1`, the pIC50 is 7.35.
For the molecule `Brc1cnn2c(NCc3cccnc3)cc(-c3ccc(-c4ccccc4)cc3)nc12`, the negative logarithm of the IC50 (pIC50) is 6.31.
As to `Nc1ccc(-c2ccc(-c3cc(NCc4cccnc4)n4nccc4n3)cc2)cc1`, the pIC50 is 5.31.
Regarding `NC(=O)c1ccc(-c2ccc(-c3cc(NCc4cccnc4)n4ncc(Br)c4n3)cc2)c(O)c1`, the pIC50 was 7.82.
The same measure for `c1ccc(-c2ccc(-c3cc(NCc4cccnc4)n4nccc4n3)cc2)cc1`: 4.90.
Regarding `NC(=O)c1ccc(-c2ccc(-c3cc(NCc4cccnc4)n4ncc(Br)c4n3)cc2)cc1`, the pIC50 is 7.43.
As for `NC(=O)c1ccc(-c2ccc(-c3cc(NCc4cccnc4)n4nccc4n3)cc2)cc1O`, the figure is 5.57.
`Nc1ccc(-c2ccc(-c3cc(NCc4cccnc4)n4ncc(Br)c4n3)cc2)cc1`: the pIC50 is 6.85.
The same measure for `CCc1cnn2c(NCc3cccnc3)cc(-c3ccc(-c4ccc(C(N)=O)c(O)c4)cc3)nc12`: 7.51; for `N#CCCc1cc(-c2ccc(-c3cc(NCc4cccnc4)n4ncc(Br)c4n3)cc2)ccc1C(N)=O`: 7.28.
For the molecule `CCc1cnn2c(NCc3cccnc3)cc(-c3ccc(-c4ccc(C(N)=O)cc4)cc3)nc12`, the pIC50 was 7.74.
Take `COc1cc(-c2ccc(-c3cc(NCc4cccnc4)n4nccc4n3)cc2)ccc1C(N)=O`: the pIC50 was 5.26.
`OCc1ccc(-c2ccc(-c3cc(NCc4cccnc4)n4nccc4n3)cc2)cc1`: the pIC50 was 5.21.
As for `Oc1ccc(-c2ccc(-c3cc(NCc4cccnc4)n4nccc4n3)cc2)cc1`, the figure is 5.41.
